Measured values published in patent US20230139826A1 (NONO INC., priority 2020, published 2023).
Marks after values point to notes of the source that are not given here. Residues, ends and D or L forms follow the SMILES beside them.

Test system: acute ischemic stroke
Assay: ESCAPE-NA1 trial: efficacy of intravenous nerinetide in patients with acute ischemic stroke undergoing thrombectomy
Type: in vivo, human
Procedure: ESCAPE-NA1 was a multicenter, randomized, double-blinded, placebo-controlled, parallel group, single-dose study to determine the efficacy and safety of intravenous nerinetide in patients with acute ischemic stroke who were selected to undergo thrombectomy. Patients were randomized in a 1:1 ratio to receive a single, 2.6 mg/kg (up to a maximum dose of 270 mg) intravenous dose of nerinetide or saline placebo delivered over 10+1 minutes. Nerinetide and placebo were prepared as colorless solutions in numbered, refrigerated vials.
Randomization in a 1:1 ratio to nerinetide or placebo occurred using a real-time, dynamic, Internet-based, stratified randomized minimization procedure. Stratification occurred on the use of intravenous alteplase (yes/no) and declared initial thrombectomy device (stent-retriever or aspiration device). The choice to stratify was based upon the possibility of drug-drug or drug-device interactions. Randomized minimization occurring within strata aimed to achieve distribution balance with regard to age, sex, baseline National Institutes of Health Stroke Scale (NIHSS) score (range, 0 to 42, with higher scores indicating greater stroke severity), site of arterial occlusion, baseline Alberta Stroke Program Early Computed Tomography Score (ASPECTS; range, 0 to 10, with 1 point subtracted for any evidence of early ischemic change in each defined region on the CT scan) and clinical site.
Eligible patients were adults aged 18 or greater with a disabling ischemic stroke at the time of randomization (baseline NIHSS>5), who had been functioning independently in the community (Barthel Index score>90 [range, 0 to 100, with higher scores indicating a greater ability to complete activities of daily living])^1 before the stroke. Enrollment occurred up to 12 hours after the onset of stroke symptoms (last-seen-well time). Non-contrast CT and multiphase CTA were performed at the thrombectomy center to identify patients with a confirmed proximal intracranial artery occlusion, defined as the intracranial internal carotid artery or the first segment of the middle cerebral artery or both.
After qualifying imaging, patients were treated with rapid EVT using currently available devices. Some patients received intravenous alteplase according to usual care following national or regional guidelines, before or during EVT, at a primary hospital prior to transfer or at the endovascular center. Interpretation of treatment guidelines was at the discretion of the treating team. Patients treated with alteplase more than 4.5 hours from stroke onset were not excluded from the trial for this reason alone. Patients had to meet inclusion and exclusion criteria at the EVT hospital. Patients received trial drug, as a single dose of 2.6 mg/kg to a maximum dose of 270 mg, based upon estimated or actual weight (if known) using a dedicated intravenous line. The trial drug was administered as soon as possible after randomization.
Time targets were imaging to randomization 30 minutes, imaging to study drug administration ≤60 minutes, and imaging to arterial access/puncture ≤60 minutes. Targets from imaging to reperfusion were 90th percentile ≤90 minutes and a median at ≤75 minutes. In general, the order of events was imaging to determine eligibility for EVT treatment, study randomization, administration of alteplase (in some patients), administration of nerinetide, and performance of EVT.
The primary outcome was good outcome as defined by a score of 0-2 on the modified Rankin scale (mRS) (range, 0 [no symptoms] to 6 [death]) for the assessment of neurologic functional disability^2 assessed in person or, if an in-person visit was not possible, by telephone, at 90 days after randomization by personnel certified in the scoring of the mRS. […]

[1] = Alteplase stratum, nerinetide n = 330
[2] = No Alteplase stratum, nerinetide n = 219
[3] = No Alteplase stratum, nerinetide n = 219, missing imputed as deaths
[4] = all patients (ITT), nerinetide vs placebo, 90 days
[5] = all patients, nerinetide group n = 549, 90 days
[6] = all patients, nerinetide vs placebo

`CC[C@H](C)[C@H](NC(=O)[C@H](CO)NC(=O)[C@H](CO)NC(=O)[C@H](CC(C)C)NC(=O)[C@H](CCCCN)NC(=O)[C@H](CCCN=C(N)N)NC(=O)[C@H](CCCN=C(N)N)NC(=O)[C@H](CCCN=C(N)N)NC(=O)[C@H](CCC(N)=O)NC(=O)[C@H](CCCN=C(N)N)NC(=O)[C@H](CCCN=C(N)N)NC(=O)[C@H](CCCCN)NC(=O)[C@H](CCCCN)NC(=O)[C@H](CCCN=C(N)N)NC(=O)CNC(=O)[C@@H](N)Cc1ccc(O)cc1)C(=O)N[C@@H](CCC(=O)O)C(=O)N[C@@H](CO)C(=O)N[C@@H](CC(=O)O)C(=O)N[C@H](C(=O)O)C(C)C` [Nerinetide] (H-YGRKKRRQRRRKLSSIESDV-OH) was tested, and the “BI 95-100, unadjusted RR (CI95)” value (Alteplase stratum) was 0.96 (0.86-1.07), the “Deaths without imputation, RR” value (Alteplase stratum) was 1.24 and the “Infarct volume (cubic root transformation), beta coefficient” value (Alteplase stratum) was 0.20 (−0.56 to 0.95)** ml^1/3. The “Infarct volume (median)” value (Alteplase stratum) was 22.7 mL, the “Mortality, unadjusted RR (CI95)” value (Alteplase stratum) was 1.14 (0.74-1.76) and the “NIHSS 0-2, unadjusted RR (CI95)” value (Alteplase stratum) was 0.92 (0.81-1.04). The “mRS 0-1, unadjusted RR (CI95)” value (Alteplase stratum) was 0.92 (0.77-1.10), the “mRS 0-2, unadjusted RR (CI95)” value (Alteplase stratum) was 0.96 (0.85-1.07) and the “BI 95-100, adjusted risk ratio (95% confidence interval)” value (Alteplase stratum (n = 659)) was 0.97 (0.88-1.08). For the same molecule, the “Mortality, adjusted risk ratio (95% confidence interval)” value (Alteplase stratum (n = 659)) was 1.08 (0.70-1.66), the “NIHSS 0-2, adjusted risk ratio (95% confidence interval)” value (Alteplase stratum (n = 659)) was 0.92 (0.82-1.04) and the “mRS 0-1, adjusted risk ratio (95% confidence interval)” value (Alteplase stratum (n = 659)) was 0.91 (0.78-1.08). For the same molecule, the “mRS 0-2, adjusted risk ratio (95% confidence interval)” value (Alteplase stratum (n = 659), nerinetide vs placebo, 90 days) was 0.97 (0.87-1.08), the “mRS 0-2, adjusted risk ratio (95% confidence interval)” value (Alteplase stratum (n = 659), nerinetide vs placebo, 90 days, listed as nerinetide) was 0.97 and the “BI 95-100, patients number (proportion)” value [1] was 213 (64.5%). For the same molecule, the “Mortality, patients number (proportion)” value [1] was 39 (11.8%), the “NIHSS 0-2, patients number (proportion)” value [1] was 191 (57.9%) and the “mRS 0-1, patients number (proportion)” value [1] was 138 (41.8%). For the same molecule, the “mRS 0-2, patients number (proportion)” value [1] was 207 (62.7%), the “mRS 0-2, patients number (proportion)” value (Alteplase stratum, nerinetide n = 330, listed as nerinetide) was 62.7% and the “Infarct volume, absolute volume difference of medians” value (Alteplase stratum, nerinetide vs placebo) was 1.6* ml. For the same molecule, the “BI 95-100, unadjusted RR (CI95)” value (No Alteplase stratum) was 1.16 (0.98-1.38), the “Deaths without imputation, RR” value (No Alteplase stratum) was 0.60 and the “Infarct volume (cubic root transformation), beta coefficient” value (No Alteplase stratum) was −0.98 (−1.91 to −0.05)** ml^1/3. The “Infarct volume (median)” value (No Alteplase stratum) was 26.7 mL, the “Mortality, unadjusted RR (CI95)” value (No Alteplase stratum) was 0.63 (0.41-0.97) and the “NIHSS 0-2, unadjusted RR (CI95)” value (No Alteplase stratum) was 1.18 (1.00-1.40). The “mRS 0-1, unadjusted RR (CI95)” value (No Alteplase stratum) was 1.13 (0.88-1.45), the “mRS 0-2, unadjusted RR (CI95)” value (No Alteplase stratum) was 1.19 (1.01-1.41) and the “BI 95-100, adjusted risk ratio (95% confidence interval)” value (No Alteplase stratum (n = 446)) was 1.14 (0.97-1.34). The “Mortality, adjusted risk ratio (95% confidence interval)” value (No Alteplase stratum (n = 446)) was 0.66 (0.44-0.99), the “NIHSS 0-2, adjusted risk ratio (95% confidence interval)” value (No Alteplase stratum (n = 446)) was 1.14 (0.97-1.34) and the “mRS 0-1, adjusted risk ratio (95% confidence interval)” value (No Alteplase stratum (n = 446)) was 1.04 (0.82-1.31). For the same molecule, the “mRS 0-2, adjusted risk ratio (95% confidence interval)” value (No Alteplase stratum (n = 446), nerinetide vs placebo, 90 days) was 1.18 (1.01-1.38), the “mRS 0-2, adjusted risk ratio (95% confidence interval)” value (No Alteplase stratum (n = 446), nerinetide vs placebo, 90 days, listed as nerinetide) was 1.18 and the “BI 95-100, number of patients” value [2] was 128. The “BI 95-100, proportion of patients” value [2] was “(58.4%)”, the “NIHSS 0-2, number of patients” value [2] was 129 and the “NIHSS 0-2, proportion of patients” value [2] was “(58.9%)”. The “mRS 0-1, number of patients” value [2] was 84, the “mRS 0-1, proportion of patients” value [2] was “(38.4%)” and the “mRS 0-2, number of patients” value [2] was 130. The “mRS 0-2, proportion of patients” value [2] was “(59.3%)”, the “Mortality, number of patients” value [3] was 28 and the “Mortality, proportion of patients” value [3] was “(12.8%)”. For the same molecule, the “mRS 0-2, proportion of patients” value (No Alteplase stratum, nerinetide n = 219, listed as nerinetide) was 59.3%, the “Infarct volume, absolute volume difference of medians” value (No Alteplase stratum, nerinetide vs placebo) was −12.5* ml and the “mRS 0-2, adjusted risk ratio (95% confidence interval)” value (all patients (ITT), nerinetide 2.6 mg/kg iv vs placebo, 90 days) was 1.04 (0.96-1.14). For the same molecule, the “mRS 0-2, adjusted risk ratio (95% confidence interval)” value (all patients (ITT), nerinetide 2.6 mg/kg iv vs placebo, 90 days, listed as nerinetide) was 1.04, the “BI 95-100, adjusted risk ratio (95% confidence interval)” value [4] was 1.03 (0.94-1.12) and the “Mortality, adjusted risk ratio (95% confidence interval)” value [4] was 0.84 (0.63-1.13). The “NIHSS 0-2, adjusted risk ratio (95% confidence interval)” value [4] was 1.01 (0.92-1.11), the “mRS 0-1, adjusted risk ratio (95% confidence interval)” value [4] was 0.98 (0.85-1.12) and the “Infarct volume (median)” value (all patients, 24-hour imaging) was 23.7 mL. The “Infarct volume (median)” value (all patients, 24-hour imaging, listed as nerinetide) was 26.0 (iqr 6.6-101.5) ml, the “BI 95-100, patients number (proportion)” value [5] was 341 (62.1%) and the “NIHSS 0-2, patients number (proportion)” value [5] was 320 (58.3%). The “mRS 0-1, patients number (proportion)” value [5] was 222 (40.4%), the “mRS 0-2, patients number (proportion)” value [5] was 337 (61.4%) and the “Mortality, patients number (proportion)” value (all patients, nerinetide group n = 549, 90 days, missing outcomes imputed as deaths) was 67 (12.2%). For the same molecule, the “mRS 0-2, patients number (proportion)” value (all patients, nerinetide group n = 549, 90 days, listed as nerinetide) was 61.4%, the “Infarct volume (cubic root transformation), adjusted beta coefficient” value (all patients, nerinetide vs control, 24-hour imaging) was −0.29 (−0.87 to 0.30)** ml^1/3 and the “BI 95-100, unadjusted RR (CI95)” value [6] was 1.03 (0.94-1.13). For the same molecule, the “Deaths without imputation, RR” value [6] was 0.87, the “Infarct volume, absolute volume difference of medians” value [6] was −2.3* ml and the “NIHSS 0-2, unadjusted RR (CI95)” value [6] was 1.01 (0.92-1.12). For the same molecule, the “mRS 0-1, unadjusted RR (CI95)” value [6] was 0.99 (0.86-1.15), the “mRS 0-2, unadjusted RR (CI95)” value [6] was 1.04 (0.94-1.14) and the “Mortality, unadjusted RR (CI95)” value (all patients, nerinetide vs placebo, missing imputed as deaths) was 0.85 (0.63-1.15). The “Infarct volume, mean” value (alteplase group) was 73.3 mL, the “Infarct volume, mean” value (no alteplase group) was 67.8 mL and the Number-needed-to-treat (no-alteplase stratum) was 10-11 patients. For the same molecule, the absolute benefit (no-alteplase stratum) was 9.4%, the “absolute risk reduction in mortality at 90 days” value (stratum that did not receive alteplase) was 7.5% and the “hazard of death, adj HR” value (stratum that did not receive alteplase, Cox model) was 0.56.
